Test results reported in ChEMBL document CHEMBL1122867, “Inhibition of human leukocyte elastase, porcine pancreatic elastase, and chymotrypsin by elasnin and other 4-hydroxy-2-pyrones” (J Med Chem, 1985).

Legend:
[1] = target: Chymotrypsin-like elastase family member 1 (Sus scrofa, UniProt P00772); test: Inhibitory activity against porcine pancreatic elastase (PP elastase) expressed as inhibitory constant
[2] = Partition coefficient (logP) (octanol/saline); type: physicochemical
Neutrophil elastase = target: T1, Neutrophil elastase (Homo sapiens, UniProt P08246); test: Inhibitory activity against human leukocyte elastase (HL elastase) expressed as inhibitory constant
T1 sequence (P08246 whole entry): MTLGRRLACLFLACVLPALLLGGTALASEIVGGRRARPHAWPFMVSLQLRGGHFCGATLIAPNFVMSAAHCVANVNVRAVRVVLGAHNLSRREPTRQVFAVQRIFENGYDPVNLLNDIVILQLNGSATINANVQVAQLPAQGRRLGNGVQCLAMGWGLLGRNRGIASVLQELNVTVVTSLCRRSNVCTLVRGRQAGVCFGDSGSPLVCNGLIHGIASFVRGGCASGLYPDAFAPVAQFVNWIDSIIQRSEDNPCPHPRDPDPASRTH

Chain of Chymotrypsin-like elastase family member 1 (P00772 whole entry): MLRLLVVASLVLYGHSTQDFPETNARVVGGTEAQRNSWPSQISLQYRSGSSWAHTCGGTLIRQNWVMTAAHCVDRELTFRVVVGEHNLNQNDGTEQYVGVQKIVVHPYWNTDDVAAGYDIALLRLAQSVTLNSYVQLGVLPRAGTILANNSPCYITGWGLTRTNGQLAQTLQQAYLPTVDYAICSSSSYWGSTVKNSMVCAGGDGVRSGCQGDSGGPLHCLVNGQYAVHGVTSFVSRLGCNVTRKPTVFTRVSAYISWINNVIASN

Compound | Ki [1] [µM] | logP [2] | Ki (Neutrophil elastase) [µM]
CCCCCC(=O)C(CCCC)c1oc(=O)c(CCCC)c(OC(C)=O)c1CCCC (stereo unspecified) | 8.13 | 3.53 | 
Cc1cc(O)c(C)c(=O)o1 | 3890 | 0.74 | 6310
Cc1oc(=O)c(C)c(O)c1C | 21900 | 0.36 | 4900
CCCCc1c(CC(C)=O)oc(=O)c(CCCC)c1O | 741 | 1.74 | 490
CCCCc1c(C(CCCC)C(=O)c2ccccc2)oc(=O)c(CCCC)c1O (stereo unspecified) | 21.4 | 1.21 | 95.5
CCCCCCC(C=O)(CCCC)c1oc(=O)c(CCCC)c(O)c1CCCC (stereo unspecified) | 15.1 | 1.52 | 151
CCCCCC(=O)C(CCCC)c1oc(=O)c(CCCC)c(O)c1CCCC (stereo unspecified) | 69.2 | 2.52 | 93.3
CCCCc1c(C)oc(O)c(CCCC)c1=O | 562 | 0.79 | 646
CCCCc1c(CC(C)=O)oc(=O)c(CCCC)c1OC(C)=O | 251 | 2.82 | 288
Cc1cc(O)cc(=O)o1 [4-HYDROXY-6-METHYLPYRAN-2-ONE] | 3090 | 0.5 | 8130
Cc1c(CC(=O)c2ccccc2)oc(=O)c(C)c1O | 3240 | 0.73 | 6030
C/C=C(\c1ccccc1)c1oc(=O)c(CCCC)c(O)c1CCCC | 141 | 1.39 | 363
CCCCc1c(CC(C)O)oc(=O)c(CCCC)c1OC(C)=O (stereo unspecified) | 1070 | 1.92 | 347
Cc1c(O)cc(CC(=O)c2ccccc2)oc1=O | 2140 | 0.78 | 977
O=C(Cc1cc(=O)cc(O)o1)c1ccccc1 |  | 0.43 | 10000
CCCCc1c(C2OC2C)oc(=O)c(CCCC)c1OC(C)=O (stereo unspecified) | 316 | 2.17 | 339
